Test results published in US20100068160A1, “COSMETIC AND DERMATOLOGICAL FORMULATIONS INCLUDING PHENOXYALKYL ESTERS” (EVONIK GOLDSCHMIDT GMBH, priority 2008, published 2010).

Assay: Dissolving power of UV photoprotective filters in phenoxyalkyl esters
Format: physicochemical
Settings: percent by weight, 22° C.; for Dissolving power for Benzophenone-3: maximum dissolvable amount of UV filter Benzophenone-3 (BP-3) in the substance; for Dissolving power for BMDM: maximum dissolvable amount of UV filter Butyl Methoxydibenzoylmethane (BMDM) in the substance; for Dissolving power for Tinosorb S: maximum dissolvable amount of UV filter Tinosorb S (Bemotrizinol, BEMT) in the substance; for Dissolving power for Uvinul T 150: maximum dissolvable amount of UV filter Uvinul T 150 (Octyl Triazone, EHT) in the substance
Description: To test the dissolving power of crystalline UV photoprotective filters in phenoxyalkyl esters, four representative UV-A and/or UV-B photoprotective filters were selected by way of representation. These were benzophenone-3 (2-hydroxy-4-methoxybenzophenone, BP-3), Butyl Methoxydibenzoylmethane (BMDM), Octyl Triazone (2,4,6-trianilino-p-(carbo-2′-ethylhexyl-1′-oxy)-1,3,5-triazines, EHT) and Bemotrizinol (bis-ethylhexyloxyphenol meth-oxyphenyl triazine, BEMT).
To determine the dissolving power for these […] UV photoprotective filters, in each case a certain amount (50 g) of one of the compounds according to the invention was initially introduced and heated to 22° C. One (1) percent by weight of a UV photoprotective filter was added and the mixture was stirred until this amount had dissolved completely and homogeneously. This operation was repeated until the maximum dissolvable amount of the UV photoprotective filter was exceeded. For complete dissolution in the case of relatively high concentrations, a prolonged stirring time of several hours was often necessary.
If the maximum concentration had been roughly determined in this way, to finely determine the concentration range around this maximum concentration the procedure was repeated using smaller initial weight amounts of the […] photoprotective filter.
The reference used was the compound Tegosoft® TN (C12-15 alkyl benzoate).

Row | Dissolving power for Benzophenone-3 | Dissolving power for BMDM | Dissolving power for Tinosorb S | Dissolving power for Uvinul T 150 | Compound
1 | 21% | 15% | 9% | 4% | CCCCC(CC)C(=O)OC(C)COc1ccccc1 (centres unmarked) [1-Phenoxy-2-propyl 2-ethylhexanoate]
2 | 21% | 14% | 9% | 6% | CCCCCCCC(=O)OC(C)COc1ccccc1 (centres unmarked) [1-Phenoxy-2-propyl caprylate, 1-phenoxy-2-propyloctanoic acid ester]
3 | 27% | 16% | 10% | 6% | CC(COc1ccccc1)OC(=O)C1CCCCC1 (centres unmarked) [1-Phenoxy-2-propyl cyclohexanoate, 1-phenoxy-2-propylcyclohexanecarboxylic acid ester]
4 | 19% | 14% | 8% | 5% | CCCCCCC(CCCC)C(=O)OCCOc1ccccc1 (centres unmarked) [2-Phenoxyethyl 2-butyloctanoate, 2-phenoxyethyl-2-butyloctanoic acid ester]
5 | 25% | 17% | 12% | 4% | CCCCC(CC)C(=O)OCCOc1ccccc1 (centres unmarked) [2-Phenoxyethyl 2-ethylhexanoate, 2-phenoxyethyl-2-ethylhexanoic acid ester]
6 | 20% | 13% | 9% | 4% | CCCCCC(CCC)C(=O)OCCOc1ccccc1 (centres unmarked) [2-Phenoxyethyl 2-propylheptanoate]
7 | 28% | 18% | 11% | 6% | CCCCCC(=O)OCCOc1ccccc1 [2-Phenoxyethyl caproate]
8 | 28% | 18% | 11% | 6% | CCCCCCCC(=O)OCCOc1ccccc1 [2-Phenoxyethyl caprylate, 2-phenoxyethyloctanoic acid ester]
9 | 30% | 19% | 12% | 6% | O=C(OCCOc1ccccc1)C1CCCCC1 [2-Phenoxyethyl cyclohexanoate, 2-phenoxyethylcyclohexanecarboxylic acid ester]
10 | 25% | 16% | 9% | 4% | CC(C)CCCCCC(=O)OCCOc1ccccc1 [2-Phenoxyethyl isononanoate]
11 | 15% | 13% | 9% | 4% | C12-15 alkyl benzoate [Tegosoft ® TN, reference compound]
